Reference: US12480137B2, “Plants having increased tolerance to herbicides” (BASF SE, priority 2014, dated 2025)

Legend:
Format in all cases: in vivo, Arabidopsis thaliana
[1] = system: Cesa3_S1037F, fpx1-2 mutant line; test: Greenhouse phytotox, pre-emergent treatment
In short: (§1)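 First, M2 or M3 Arabidopsis plants are grown under greenhouse conditions. Next, they are treated with a cellulose biosynthesis-inhibiting triazine-2,4-diamine herbicide, e.g. N4-(4-chloro-3,5,6-trifluoro-2-pyridyl)-6-(1-fluoro-1-methyl-ethyl)-1,3,5-triazine-2,4-diamine. Finally, improved herbicide tolerance is evaluated.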

[2] = system: Cesa1_P1010L, fpx2-2 mutant line; test: Greenhouse phytotox, pre-emergent treatment
In short: (§2)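 Herbicide tolerance read on M2/M3 Arabidopsis in the greenhouse; agents were CBI triazine-2,4-diamines bearing polyfluorophenyl or halotrifluoropyridyl N4 groups, e.g. 6-(2,6-difluorophenyl)-N4-(2,3,5,6-tetrafluorophenyl)-1,3,5-triazine-2,4-diamine.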

A. thaliana WT L. erecta [3] = test: Greenhouse phytotox, pre-emergent treatment
In short: as §1

[4] = system: Cesa3_S1040L, fpx1-1 mutant line; test: Greenhouse phytotox, pre-emergent treatment
In short: as §1

[5] = system: Cesa1_G1009D, fpx2-3 mutant line; test: Greenhouse phytotox, pre-emergent treatment
In short: as §2

[6] = system: transgenic Arabidopsis plants, construct AtCESA3_S1040L; test: Growth inhibition of transgenic Arabidopsis in 48-well plates, tolerance factor from IC50; conditions: SEQ ID NO 3, substitution S1040L, growth inhibition seven to ten days after seeding
Text: (§3) For transformation of Arabidopsis thaliana, wildtype or mutated cellulose synthase sequences based on one of the following sequences SEQ ID NO: 72, 73, 74, 75, 76, or 77, are cloned with standard cloning techniques as described in Sambrook et al. (Molecular cloning (2001) Cold Spring Harbor Laboratory Press) in a binary vector containing resistance marker gene cassette (AHAS) and mutated cellulose synthase sequence (marked as GOI) in between ubiquitin promoter (PcUbi) and nopaline synthase terminator (NOS) sequence. Binary plasmids are introduced to Agrobacterium tumefaciens for plant transformation. Arabidopsis thaliana are transformed with wildtype or mutated cellulose synthase sequences by floral dip method as decribed by McElver and Singh (WO 2008/124495). Transgenic Arabidopsis plants are subjected to TaqMan analysis for analysis of the number of integration loci.
(§4) Transgenic Arabidopsis thaliana plants are assayed for improved tolerance to azine herbicides like e. g. 6-cyclopentyl-N4-(2,3,4,5,6-pentafluorophenyl)-1,3,5-triazine-2,4-diamine in 48-well plates. Therefore, T2 seeds are surface sterilized by stirring for 5 min in ethanol+water (70+30 by volume), rinsing one time with ethanol+water (70+30 by volume) and two times with sterile, deionized water. The seeds are resuspended in 0.1% agar dissolved in water (w/v) Four to five seeds per well are plated on solid nutrient medium consisting of half-strength murashige skoog nutrient solution, pH 5.8 (Murashige and Skoog (1962) Physiologia Plantarum 15: 473-497). Compounds are dissolved in dimethylsulfoxid (DMSO) and added to the medium prior solidification (final DMSO concentration 0.1%). Multi well plates are incubated in a growth chamber at 22° C., 75% relative humidity and 110 μmol Phot*m^−2*s^−1 with 14:10 h light:dark photoperiod. Growth inhibition is evaluated seven to ten days after seeding in comparison to wild type plants. Tolerance factors are calculated based on IC50 values of growth inhibition of transformed versus non-transformed Arabidopsis plants.

[7] = system: transgenic Arabidopsis plants, construct AtCESA1_G1013R; test: as above; conditions: SEQ ID NO 1, substitution G1013R, growth inhibition seven to ten days after seeding
Text: as §3, §4

[8] = system: transgenic Arabidopsis plants, construct AtCESA3_wt; test: as above; conditions: SEQ ID NO 3, growth inhibition seven to ten days after seeding
Text: as §3, §4

[9] = system: transgenic Arabidopsis plants, construct AtCESA3_S1037F; test: as above; conditions: SEQ ID NO 3, substitution S1037F, growth inhibition seven to ten days after seeding
Text: as §3, §4

[10] = system: transgenic Arabidopsis plants, construct AtCESA1 wt; test: as above; conditions: SEQ ID NO 1, growth inhibition seven to ten days after seeding
Text: as §3, §4

[11] = system: Cesa3_S1037F, fpx1-2 mutant line; test: Greenhouse phytotox, post-emergent treatment 6 weeks after sowing
Description: (§5) Additionally, M2 or M3 Arabidopsis plants are tested for improved tolerance to cellulose biosynthesis-inhibiting herbicides in greenhouse studies (e. g. with the following cellulose biosynthesis-inhibiting herbicides: 6-cyclopentyl-N4-(2,3,4,5,6-pentafluorophenyl)-1,3,5-triazine-2,4-diamine; 6-(1-fluoro-1-methyl-ethyl)-N4-(2,3,4,5,6-pentafluorophenyl)-1,3,5-triazine-2,4-diamine; N4-(4-chloro-3,5,6-trifluoro-2-pyridyl)-6-(1-fluoro-1-methyl-ethyl)-1,3,5-triazine-2,4-diamine; 6-(2,6-difluorophenyl)-N4-(2,3,5,6-tetrafluorophenyl)-1,3,5-triazine-2,4-diamine; N4-(4-bromo-2,3,5,6-tetrafluoro-phenyl)-6-(1-fluoro-1-methyl-ethyl)-1,3,5-triazine-2,4-diamine.

[12] = system: Cesa3_S983F, fpx1-3 mutant line; test: as above
Description: as §5

[13] = system: Cesa1_P1010L, fpx2-2 mutant line; test: as above
Description: as §5

[14] = system: Cesa1_G1013R, fpx2-1 mutant line; test: as above
Description: as §5

A. thaliana WT L. erecta [15] = test: as above
Description: as §5

[16] = system: Cesa3_S1040L, fpx1-1 mutant line; test: as above
Description: as §5

[17] = system: Cesa1_G1009D, fpx2-3 mutant line; test: as above
Description: as §5

Question: How did the “Phytotox value on a scale from 0-100 (100 is 100% damage)” value (from here on “Phytotox value … (100 is 100% damage)”) ([1]; 0.25 g ai/ha) turn out when `Nc1nc(Nc2c(F)c(F)c(F)c(F)c2F)nc(C2CCCC2)n1` [6-cyclopentyl-N4-(2,3,4,5,6-pentafluorophenyl)-1,3,5-triazine-2,4-diamine] was run?
Answer: Its value is 0.

Question: What about the “Phytotox value … (100 is 100% damage)” value ([1]; 0.98 g ai/ha) of the same compound?
Answer: The value was 23.

Question: And the “Phytotox value … (100 is 100% damage)” value ([1]; 3.91 g ai/ha)?
Answer: The value was 15.

Question: And the “Phytotox value … (100 is 100% damage)” value ([1]; 15.63 g ai/ha)?
Answer: Its value is 5.

Question: What about the “Phytotox value … (100 is 100% damage)” value ([2]; 0.25 g ai/ha) of the same compound?
Answer: Its value is 0.

Question: And the “Phytotox value … (100 is 100% damage)” value ([2]; 0.98 g ai/ha)?
Answer: Its value is 33.

Question: What about the “Phytotox value … (100 is 100% damage)” value ([2]; 3.91 g ai/ha) of the same compound?
Answer: The value was 63.

Question: And the “Phytotox value … (100 is 100% damage)” value ([2]; 15.63 g ai/ha)?
Answer: The value was 98.

Question: What about the “Phytotox value … (100 is 100% damage)” value (A. thaliana WT L. erecta [3]; 0.25 g ai/ha) of the same compound?
Answer: Its value is 38.

Question: What about the “Phytotox value … (100 is 100% damage)” value (A. thaliana WT L. erecta [3]; 0.98 g ai/ha) of the same compound?
Answer: The value was 80.

Question: What about the “Phytotox value … (100 is 100% damage)” value (A. thaliana WT L. erecta [3]; 3.91 g ai/ha) of the same compound?
Answer: The value was 99.

Question: What about the “Phytotox value … (100 is 100% damage)” value (A. thaliana WT L. erecta [3]; 15.63 g ai/ha) of the same compound?
Answer: Its value is 100.

Question: And the “Phytotox value … (100 is 100% damage)” value ([4]; 0.25 g ai/ha)?
Answer: The value was 5.

Question: And the “Phytotox value … (100 is 100% damage)” value ([4]; 0.98 g ai/ha)?
Answer: The value was 20.

Question: And the “Phytotox value … (100 is 100% damage)” value ([4]; 3.91 g ai/ha)?
Answer: Its value is 25.

Question: And the “Phytotox value … (100 is 100% damage)” value ([4]; 15.63 g ai/ha)?
Answer: The value was 40.

Question: What about the “Phytotox value … (100 is 100% damage)” value ([5]; 0.25 g ai/ha) of the same compound?
Answer: Its value is 5.

Question: And the “Phytotox value … (100 is 100% damage)” value ([5]; 0.98 g ai/ha)?
Answer: The value was 25.

Question: And the “Phytotox value … (100 is 100% damage)” value ([5]; 3.91 g ai/ha)?
Answer: The value was 58.

Question: And the “Phytotox value … (100 is 100% damage)” value ([5]; 15.63 g ai/ha)?
Answer: Its value is 88.

Question: What about the “Relative tolerance rate (non-transgenic = 1.0)” value [6] of the same compound?
Answer: Its value is 1.

Question: And the “Relative tolerance rate (non-transgenic = 1.0)” value [7]?
Answer: The value was 3.

Question: And the “Relative tolerance rate (non-transgenic = 1.0)” value [8]?
Answer: Its value is 1.

Question: And the “Relative tolerance rate (non-transgenic = 1.0)” value [9]?
Answer: Its value is 17.

Question: And the “Relative tolerance rate (non-transgenic = 1.0)” value [10]?
Answer: Its value is 1.

Question: What about the “Phytotox value … (100 is 100% damage)” value ([11]; 7.88 g ai/ha) of the same compound?
Answer: The value was 55.

Question: And the “Phytotox value … (100 is 100% damage)” value ([11]; 15.75 g ai/ha)?
Answer: Its value is 58.

Question: What about the “Phytotox value … (100 is 100% damage)” value ([11]; 31.5 g ai/ha) of the same compound?
Answer: Its value is 70.

Question: What about the “Phytotox value … (100 is 100% damage)” value ([11]; 63 g ai/ha) of the same compound?
Answer: Its value is 78.

Question: What about the “Phytotox value … (100 is 100% damage)” value ([12]; 7.88 g ai/ha) of the same compound?
Answer: The value was 25.

Question: What about the “Phytotox value … (100 is 100% damage)” value ([12]; 15.75 g ai/ha) of the same compound?
Answer: The value was 65.

Question: And the “Phytotox value … (100 is 100% damage)” value ([12]; 31.5 g ai/ha)?
Answer: Its value is 55.

Question: What about the “Phytotox value … (100 is 100% damage)” value ([12]; 63 g ai/ha) of the same compound?
Answer: The value was 73.

Question: What about the “Phytotox value … (100 is 100% damage)” value ([13]; 7.88 g ai/ha) of the same compound?
Answer: Its value is 63.

Question: What about the “Phytotox value … (100 is 100% damage)” value ([13]; 15.75 g ai/ha) of the same compound?
Answer: The value was 70.

Question: What about the “Phytotox value … (100 is 100% damage)” value ([13]; 31.5 g ai/ha) of the same compound?
Answer: Its value is 78.

Question: And the “Phytotox value … (100 is 100% damage)” value ([13]; 63 g ai/ha)?
Answer: The value was 93.

Question: And the “Phytotox value … (100 is 100% damage)” value ([14]; 7.88 g ai/ha)?
Answer: The value was 38.

Question: What about the “Phytotox value … (100 is 100% damage)” value ([14]; 15.75 g ai/ha) of the same compound?
Answer: Its value is 55.

Question: And the “Phytotox value … (100 is 100% damage)” value ([14]; 31.5 g ai/ha)?
Answer: The value was 65.

Question: And the “Phytotox value … (100 is 100% damage)” value ([14]; 63 g ai/ha)?
Answer: Its value is 80.

Question: And the “Phytotox value … (100 is 100% damage)” value (A. thaliana WT L. erecta [15]; 7.88 g ai/ha)?
Answer: The value was 68.

Question: What about the “Phytotox value … (100 is 100% damage)” value (A. thaliana WT L. erecta [15]; 15.75 g ai/ha) of the same compound?
Answer: Its value is 80.

Question: What about the “Phytotox value … (100 is 100% damage)” value (A. thaliana WT L. erecta [15]; 31.5 g ai/ha) of the same compound?
Answer: Its value is 78.

Question: What about the “Phytotox value … (100 is 100% damage)” value (A. thaliana WT L. erecta [15]; 63 g ai/ha) of the same compound?
Answer: Its value is 98.

Question: And the “Phytotox value … (100 is 100% damage)” value ([16]; 7.88 g ai/ha)?
Answer: The value was 0.

Question: And the “Phytotox value … (100 is 100% damage)” value ([16]; 15.75 g ai/ha)?
Answer: The value was 5.

Question: What about the “Phytotox value … (100 is 100% damage)” value ([16]; 31.5 g ai/ha) of the same compound?
Answer: The value was 35.

Question: And the “Phytotox value … (100 is 100% damage)” value ([16]; 63 g ai/ha)?
Answer: The value was 68.

Question: And the “Phytotox value … (100 is 100% damage)” value ([17]; 7.88 g ai/ha)?
Answer: The value was 45.

Question: And the “Phytotox value … (100 is 100% damage)” value ([17]; 15.75 g ai/ha)?
Answer: The value was 63.

Question: What about the “Phytotox value … (100 is 100% damage)” value ([17]; 31.5 g ai/ha) of the same compound?
Answer: The value was 73.

Question: What about the “Phytotox value … (100 is 100% damage)” value ([17]; 63 g ai/ha) of the same compound?
Answer: Its value is 75.
